Results taken from ChEMBL document CHEMBL1132680, “A "cephalosporin-like" cyclic depsipeptide: synthesis and reaction with beta-lactam-recognizing enzymes” (Bioorg Med Chem Lett, 1999).

Key:
Assay type in all cases: ADME
[1] = Kcat/Km against class C P99 beta-lactamase catalyzed lactone hydrolysis
[2] = Km against class C P99 beta-lactamase catalyzed lactone hydrolysis
[3] = Kcat/Km against class A TEM beta-lactamase catalyzed lactone hydrolysis
[4] = Km against class A PCI beta-lactamase catalyzed lactone hydrolysis
[5] = Kcat/Km against class A PCI beta-lactamase catalyzed lactone hydrolysis
[6] = Kcat against class C P99 beta-lactamase catalyzed lactone hydrolysis
[7] = Kcat against class A PCI beta-lactamase catalyzed lactone hydrolysis
[8] = Kcat against class A TEM beta-lactamase catalyzed lactone hydrolysis
[9] = Km against class A TEM beta-lactamase catalyzed lactone hydrolysis

| Ratio [1] [M⁻¹ s⁻¹] | Km [2] [µM] | Ratio [3] [M⁻¹ s⁻¹] | Km [4] [µM] | Ratio [5] | k cat [6] [s⁻¹] | k cat [7] [s⁻¹] | k cat [8] [s⁻¹] | Km [9] [µM] | SMILES |
| --- | --- | --- | --- | --- | --- | --- | --- | --- | --- |
| 19000 | 290 | 1200 | 15 | 1.6 M⁻¹ s⁻¹ | 5.6 | 0.024 | > 1.2 | > 1000 | O=C(Cc1ccccc1)N[C@@H](Cc1cccc(C(=O)O)c1O)B(O)O |
| 22000000 | 9 | 600000 | ≤ 1 | >= 1000 M-1 s-1 | 200 | 0.001 | 120 | 200 | CC(=O)OCC1=C(C(=O)O)N2C(=O)[C@@H](NC(=O)Cc3cccs3)[C@H]2SC1 [CEPHALOTHIN] |
| 8700 | 620 | 39000 | 0.304 | 1.55 M⁻¹ s⁻¹ | 5.4 | 0.0047 | 2.07 | 53 | O=C(Cc1ccccc1)N[C@H]1Cc2cccc(C(=O)O)c2OC1=O |
